Assay results as given in patent publication US20110105323A1, “Calcium Salts of Phosphorous Acid for Increasing the Effect of Fungicides” (BASF SE, priority 2008, published 2011).
Read-outs that look alike come from different tables or passages of the source.

Columns and labels:
Plasmopara viticola [1] = test: Example 6: downy mildew on grapevines, greenhouse, protective spray (1 day); type: in vivo
Plasmopara viticola [2] = test: Example 7: downy mildew on grapevines, greenhouse, as example 6; type: in vivo
Plasmopara viticola [3] = test: Example 8: downy mildew on grapevines, bar application pattern; type: in vivo
Plasmopara viticola [4] = test: Example 9: downy mildew on grapevines, translaminar action; type: in vivo
Plasmopara viticola [5] = test: Example 10: downy mildew on grapevines, greenhouse, protective spray (7 days); type: in vivo
Phakopsora pachyrhizi = test: Example 11: soybean rust on soybeans, greenhouse; type: in vivo
[6] = system: downy mildew on grapevines; test: Example 12: downy mildew on grapevines, outdoor test with natural infections; type: in vivo
[7] = system: downy mildew on grapevines; test: Example 13: downy mildew on grapevines, outdoor test with natural infections; type: in vivo
[8] = system: downy mildew on grapevines; test: Example 14: downy mildew on grapevines, outdoor test with natural infections; type: in vivo
Phytophthora infestans [9] = conditions: in vivo
Phytophthora infestans [10] = conditions: in vivo; remark: listed apart in the source

Compound: [Ca+2].[O-]P([O-])O [Ca(H2PO3)2, calcium hydrogenphosphite]
- Efficacy W (Plasmopara viticola [1]; in vivo): 3%
- Efficacy W (Plasmopara viticola [2]; in vivo): 3%
- Efficacy W (Plasmopara viticola [3]; in vivo): 0%
- Efficacy W (Plasmopara viticola [4]; in vivo): 0%
- Efficacy W (Plasmopara viticola [5]; in vivo): 9%
- Efficacy W (Phakopsora pachyrhizi; in vivo): 48%
- Efficacy W ([6]; in vivo): 18%
- Efficacy W ([7]; in vivo): 21%
- Efficacy W ([8]; in vivo): 24%

Compound: O=C(Nc1ccccc1-c1ccc(Cl)cc1)c1cccnc1Cl [boscalid]
- Efficacy W (Phakopsora pachyrhizi; boscalid 20 ppm, soybean 'Monsoy' leaves sprayed 2 days before inoculation, scored after 10-12 days): 11%

Compound: N#Cc1sc2c(=O)c3ccccc3c(=O)c=2sc1C#N [dithianon]
- Efficacy W (Phytophthora infestans [9]): 31%
- Efficacy W (Plasmopara viticola [2]; dithianon 10 ppm in spray liquor, grapevine leaves sprayed 1 day before inoculation): 62%
- Efficacy W (Plasmopara viticola [3]; dithianon 10 ppm, bar application on lower half of upper leaf side 1 day before inoculation, scored on apical half of leaf underside): 6%
- Efficacy W ([6]; dithianon 300 ppm, outdoors, natural infections, spray interval 14-16 days, scored 1 day after the 6th application): 85%
- Efficacy W ([7]; dithianon 400 ppm, outdoors, natural infections, 7 application dates, spray interval 14-16 days): 48%
- Efficacy W ([8]; dithianon 300 ppm, outdoors, natural infections, spray interval 9-11 days, scored 4 days after the 8th application): 56%

Compound: CCCCCCCCc1c(CC)nc2ncnn2c1N [fungicide A, 5-ethyl-6-octyl-[1,2,4]triazolo[1,5-a]pyrimidin-7-ylamine]
- Efficacy W (Phytophthora infestans [10]): 39%
- Efficacy W (Plasmopara viticola [4]; fungicide A 5 ppm, translaminar, applied to upper side of leaf 48 hours prior to inoculation): 1%
- Efficacy W (Plasmopara viticola [5]; fungicide A 100 ppm, grapevine leaves sprayed 7 days before inoculation): 85%

Compound: COC(=O)N(OC)c1ccccc1COc1ccn(-c2ccc(Cl)cc2)n1 [pyraclostrobin]
- Efficacy W (Plasmopara viticola [1]; pyraclostrobin 0.5 ppm in spray liquor, Riesling leaves sprayed 1 day before inoculation): 92%
